Key:
Type in all cases: biochemical
RET G810R = target: T1, RET G810R (Homo sapiens, UniProt P07949, G810R); assay: In vitro kinase activity assay (mobility shift assay), RET G810R; conditions: ATP 201 μM, reaction time 4 h
T1 construct: purchased Proqinase 1724-0000-1
How it was run: (§1)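 Mobility-shift kinase assay in 20 mM Hepes pH 7.5, 10 mM MgCl2, EGTA, Brij35, BSA, Na3VO4, DTT, 1% DMSO. Compound was preincubated with kinase 10 min, then ATP and substrate were added for 30-240 min at room temperature. Ten 3-fold dilutions from 1000 nM final; IC50 from fitted conversion-rate inhibition.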

RET wt = target: T2, RET wt (Homo sapiens, UniProt P07949); assay: In vitro kinase activity assay (mobility shift assay), RET wild type; conditions: ATP 16 μM, reaction time 60 min
T2 construct: purchased Carna 08-159
How it was run: as §1

RET V804M = target: T3, RET V804M (Homo sapiens, UniProt P07949, V804M); assay: In vitro kinase activity assay (mobility shift assay), RET V804M; conditions: ATP 5.4 μM, reaction time 60 min
T3 construct: purchased signalchem R02-12GG
Experimental: (§2) The IC50 (half inhibitory concentration) values of the compounds were used as an indicator to evaluate the inhibitory effect of the compound on RET wild-type, RET mutant, TRKa, SRC, BTK and/or mutated BTK kinase.
(§3) Using the method of Mobility shift assay, the compounds were tested for inhibitory activity against the following kinases: RET wild type, RET mutant, TRKa, SRC, BTK and/or mutated BTK. The initial concentration of the test compound was 1000 nM, 3-fold dilution, 10 concentrations, detected in a well for each concentration.
(§4) 20 mM hydroxyethylpiperazineethanesulfonic acid (Hepes) (pH 7.5) buffer, 10 mM MgCl2, 1 mM ethylene glycol bis(aminoethyl ether)tetraacetic acid (EGTA), 0.02% polyoxyethylene lauryl ether (Brij35), 0.02 mg/ml […] (BSA), 0.1 mM Na3VO4, 2 mM dithiothreitol (DTT), 1% DMSO.
(§5) The test compounds were dissolved in 100% dimethyl sulfoxide (DMSO) system, and prepared as 10 mM for use, and stored in a nitrogen cabinet away from light.
(§6) • (1) Preparing 1× kinase reaction buffer. • (2) Preparation of compound concentration gradient: the initial concentration of the compounds was 1000 nM, which was diluted as 100-fold final concentration of solution in 100% dimethyl sulfoxide (DMSO) in a 384-well plate. The compound was accurately 3-fold diluted with the kinase buffer solution, 10 concentrations in total, and the final concentration was 0.0508 nM. The 100-fold final concentration of solution in 100% dimethyl sulfoxide (DMSO) was obtained by dilution in 384 source plate. The liquid separator Echo 550 was used to transfer 250 nl of 100-fold final concentration of compound to the target 384 well plate. 250 nl of DMSO was added to the positive and negative control wells. • (3) 2.5-fold final concentration of kinase solution was prepared by the 1× kinase buffer. • (4) 10 4, of 2.5-fold final concentration of kinase solution was added to the compound well and the positive control well, respectively; 10 4, of 1× kinase buffer was added to the negative control well. • (5) After centrifuging at 1000 rpm for 30 second, the reaction plate was shaken and mixed, followed by incubation at room temperature for 10 min. • (6) a mixed solution of 25/15-fold final concentration of adenosine triphosphate (ATP) and kinase substrate was prepared by 1× kinase buffer. • (7) The mixed solution (15 μL) of 25/15-fold final concentration of adenosine triphosphate (ATP) and substrate was added to initiate the reaction. • (8) 384-well plate was centrifuged at 1000 rpm for 30 second, shaken and mixed well, and then incubated at room temperature for 30-240 min. • (9) After stopping the kinase reaction, the plate was centrifugated at 1000 rpm for 30 second, shaken and mixed well. • (10)The conversion rate was read with Caliper EZ Reader.
(§7) wherein Conversion%_sample is the conversion rate reading of the sample; Conversion%_min: the mean value of negative control wells, representing the conversion rate reading of wells without enzymes; Conversion%_max: the mean value of positive control wells, representing the conversion rate reading of wells without compound inhibition.
(§8) The log value of concentration was taken as the X axis, and the percentage inhibition rate was taken as the Y axis. Graphpad 6.0 analysis software was used to fit the dose-response curve, so as to obtain the IC50 value of each compound on the enzyme activity

BTK C481S = target: T4, BTK C481S (Homo sapiens, UniProt Q06187, C481S); assay: In vitro kinase activity assay (mobility shift assay), BTK C481S; conditions: ATP 90 μM, reaction time 30 min
T4 construct: purchased Carna 08-547
Experimental: as §2, §3, §4, §5, §6, §7, §8

BTK = target: T5, BTK (Homo sapiens, UniProt Q06187); assay: In vitro kinase activity assay (mobility shift assay), BTK; conditions: ATP 71 μM, reaction time 30 min
T5 construct: purchased Carna 08-180
Experimental: as §2, §3, §4, §5, §6, §7, §8

SRC = target: T6, SRC (Homo sapiens, UniProt P12931); assay: In vitro kinase activity assay (mobility shift assay), SRC; conditions: ATP 19 μM, reaction time 30 min
T6 construct: purchased Carna 08-173
Experimental: as §2, §3, §4, §5, §6, §7, §8

TRKa = target: T7, TRKa (Homo sapiens, UniProt P04629); assay: In vitro kinase activity assay (mobility shift assay), TRKa; conditions: ATP 47.8 μM, reaction time 30 min
T7 construct: purchased Carna 08-186
Experimental: as §2, §3, §4, §5, §6, §7, §8

T1 sequence (P07949 29-1114 G810R): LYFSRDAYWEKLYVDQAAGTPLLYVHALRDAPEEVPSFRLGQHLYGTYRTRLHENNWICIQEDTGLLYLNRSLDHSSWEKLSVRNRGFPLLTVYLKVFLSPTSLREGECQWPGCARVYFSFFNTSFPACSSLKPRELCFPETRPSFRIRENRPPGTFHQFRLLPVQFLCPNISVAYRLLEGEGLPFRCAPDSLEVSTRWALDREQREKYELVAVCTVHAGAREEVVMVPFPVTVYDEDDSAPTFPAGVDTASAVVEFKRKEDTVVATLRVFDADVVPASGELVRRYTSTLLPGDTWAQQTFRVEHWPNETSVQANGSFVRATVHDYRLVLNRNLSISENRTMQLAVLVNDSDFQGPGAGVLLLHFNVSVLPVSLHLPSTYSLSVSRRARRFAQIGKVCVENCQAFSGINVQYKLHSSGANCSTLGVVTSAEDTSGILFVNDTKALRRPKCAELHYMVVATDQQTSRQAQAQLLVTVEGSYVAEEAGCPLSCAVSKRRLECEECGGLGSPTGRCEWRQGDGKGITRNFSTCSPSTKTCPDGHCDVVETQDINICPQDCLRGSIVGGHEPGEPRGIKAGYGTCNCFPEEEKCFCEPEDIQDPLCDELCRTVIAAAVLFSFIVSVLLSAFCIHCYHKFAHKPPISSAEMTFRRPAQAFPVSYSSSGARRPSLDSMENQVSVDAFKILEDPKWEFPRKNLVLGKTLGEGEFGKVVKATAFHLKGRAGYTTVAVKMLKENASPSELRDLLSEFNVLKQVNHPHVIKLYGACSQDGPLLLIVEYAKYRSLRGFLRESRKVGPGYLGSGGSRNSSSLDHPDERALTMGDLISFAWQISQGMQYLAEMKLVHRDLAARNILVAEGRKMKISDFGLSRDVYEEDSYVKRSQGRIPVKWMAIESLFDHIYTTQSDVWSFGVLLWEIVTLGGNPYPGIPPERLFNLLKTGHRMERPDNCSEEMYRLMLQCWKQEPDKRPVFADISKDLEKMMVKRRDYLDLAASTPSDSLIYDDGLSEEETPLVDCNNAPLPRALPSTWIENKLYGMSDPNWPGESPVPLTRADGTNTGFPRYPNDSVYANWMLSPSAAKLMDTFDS
T6 sequence (P12931 whole entry): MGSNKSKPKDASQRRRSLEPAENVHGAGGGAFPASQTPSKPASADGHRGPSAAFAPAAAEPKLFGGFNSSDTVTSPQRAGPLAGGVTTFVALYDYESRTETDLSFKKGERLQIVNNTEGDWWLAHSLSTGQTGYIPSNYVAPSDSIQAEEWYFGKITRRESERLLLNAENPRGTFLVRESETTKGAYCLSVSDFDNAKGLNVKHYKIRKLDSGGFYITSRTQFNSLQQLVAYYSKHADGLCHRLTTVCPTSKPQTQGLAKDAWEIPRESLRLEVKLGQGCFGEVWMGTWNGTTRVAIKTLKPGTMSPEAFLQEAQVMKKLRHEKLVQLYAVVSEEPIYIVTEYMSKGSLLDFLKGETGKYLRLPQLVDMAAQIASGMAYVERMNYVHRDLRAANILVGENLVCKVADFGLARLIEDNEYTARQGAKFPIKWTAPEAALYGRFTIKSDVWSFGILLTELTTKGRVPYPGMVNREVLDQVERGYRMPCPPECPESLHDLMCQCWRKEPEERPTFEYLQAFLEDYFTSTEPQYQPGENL
T2 sequence (P07949 29-1114): as the sequence (P07949 29-1114 G810R) above, with R782G counted along it
T5 sequence (Q06187 whole entry): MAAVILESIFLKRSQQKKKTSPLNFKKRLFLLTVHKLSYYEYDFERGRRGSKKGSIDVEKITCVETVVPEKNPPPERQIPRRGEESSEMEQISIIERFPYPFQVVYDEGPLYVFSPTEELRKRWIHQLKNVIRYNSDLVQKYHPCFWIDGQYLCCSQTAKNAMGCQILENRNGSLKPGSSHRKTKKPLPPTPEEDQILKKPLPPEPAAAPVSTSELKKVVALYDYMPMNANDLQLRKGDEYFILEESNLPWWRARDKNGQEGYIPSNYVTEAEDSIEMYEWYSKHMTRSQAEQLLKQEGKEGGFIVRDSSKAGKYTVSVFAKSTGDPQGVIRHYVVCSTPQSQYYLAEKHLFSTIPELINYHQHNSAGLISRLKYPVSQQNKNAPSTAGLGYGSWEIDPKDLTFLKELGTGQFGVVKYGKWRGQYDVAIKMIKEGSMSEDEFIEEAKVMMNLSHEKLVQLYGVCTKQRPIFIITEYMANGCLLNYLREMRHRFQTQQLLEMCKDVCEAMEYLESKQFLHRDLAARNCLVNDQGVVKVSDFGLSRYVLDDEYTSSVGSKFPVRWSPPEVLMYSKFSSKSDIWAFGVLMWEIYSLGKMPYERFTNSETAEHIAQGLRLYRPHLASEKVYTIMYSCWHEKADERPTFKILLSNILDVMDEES
T4 sequence (Q06187 whole entry C481S): as the sequence (Q06187 whole entry) above, with C481S counted along it
T3 sequence (P07949 29-1114 V804M): as the sequence (P07949 29-1114 G810R) above, with V776M, R782G counted along it
T7 sequence (P04629 33-796): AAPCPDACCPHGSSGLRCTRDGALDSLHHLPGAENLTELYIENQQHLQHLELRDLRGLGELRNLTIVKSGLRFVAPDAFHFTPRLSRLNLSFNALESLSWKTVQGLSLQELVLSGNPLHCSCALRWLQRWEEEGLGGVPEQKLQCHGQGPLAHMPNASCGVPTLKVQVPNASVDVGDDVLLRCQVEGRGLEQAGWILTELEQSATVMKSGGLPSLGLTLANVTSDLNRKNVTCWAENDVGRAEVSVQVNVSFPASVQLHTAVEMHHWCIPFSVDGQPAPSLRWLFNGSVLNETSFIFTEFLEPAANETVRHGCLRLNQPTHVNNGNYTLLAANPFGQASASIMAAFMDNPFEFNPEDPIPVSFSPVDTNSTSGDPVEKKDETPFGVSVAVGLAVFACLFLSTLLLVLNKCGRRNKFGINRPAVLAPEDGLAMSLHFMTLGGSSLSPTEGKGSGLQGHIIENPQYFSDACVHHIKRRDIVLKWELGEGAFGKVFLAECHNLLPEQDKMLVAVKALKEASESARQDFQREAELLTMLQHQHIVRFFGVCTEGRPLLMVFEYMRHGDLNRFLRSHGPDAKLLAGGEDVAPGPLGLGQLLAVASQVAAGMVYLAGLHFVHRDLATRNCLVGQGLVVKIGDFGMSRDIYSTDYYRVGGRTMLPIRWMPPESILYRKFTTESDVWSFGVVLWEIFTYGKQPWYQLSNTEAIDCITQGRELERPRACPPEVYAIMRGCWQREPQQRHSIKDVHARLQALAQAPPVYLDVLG

## COC(=O)Nc1ccc(-c2c3nc4c(cnn4c2N)C(=O)NC[C@H](C)Oc2ncc(F)cc2CN3)cc1 [Compound 49, methyl (4-((S, 1^3E, 1^4E)-1^7-amino-4^5-fluoro-6-methyl-9-oxo-5-oxa-2,8-diaza-1(5,3)-pyrazolino [1,5-a]pyrimidin-4(3,2)-pyridinacyclononaphan-1^6-yl)-phenyl)carbamate]
RET G810R
  IC50: 9.3 nM
RET wt
  IC50: < 0.51 nM
RET V804M
  IC50: 1.3 nM
BTK C481S
  IC50: 15 nM
BTK
  IC50: 9.2 nM

## C[C@H]1CNC(=O)c2c(C#N)nn3c(N)c(-c4ccccc4)c(nc23)NCc2cc(F)cnc2O1 [Example 77, (S, 1^3E, 1^4E)-1^2-cyano-1^6-phenyl-1^7-amino-4^5-fluoro-6-methyl-5-oxa-2,8-diaza-1(5,3)-pyrazolo[1,5-a]pyrimidinyl-4(3,2)-pyridinacyclononaphan-9-one]
RET G810R
  IC50: > 1000 nM
RET wt
  IC50: > 1000 nM
RET V804M
  IC50: > 1000 nM
BTK C481S
  IC50: > 1000 nM
BTK
  IC50: > 1000 nM

## CC(C)OC(=O)Nc1ccc(-c2cn3ncc4c3nc2NCc2cc(F)cnc2O[C@@H](C)CNC4=O)cc1 [Compound 31, iso-propyl (4-((S, 1^3E, 1^4E)-4^5-fluoro-6-methyl-9-oxo-5-oxa-2,8-diaza-1(5,3)-pyrazolo[1,5-a]pyrimidin-4(3,2)-pyridinacyclononaphan-1^6-yl)phenyl)carbamate]
RET G810R
  IC50: 12.3 nM
SRC
  IC50: 843 nM
RET wt
  IC50: 4.05 nM
TRKa
  IC50: > 10000 nM
BTK
  IC50: > 10000 nM

## C[C@H]1CNC(=O)c2cnn3cc(-c4cnn(C)c4)c(nc23)NCc2cc(F)cnc2O1 [Compound 24]
RET wt
  IC50: 20 nM
TRKa
  IC50: > 10000 nM
BTK C481S
  IC50: 398 nM
BTK
  IC50: 296 nM

## Cc1nn2c(N)c(-c3ccccc3)c3nc2c1C(=O)NC[C@H](C)Oc1ncc(F)cc1CN3 [Example 74, (S, 1^3E, 1^4E)-1^7-amino-4^5-fluoro-1^2,6-dimethyl-1^6-phenyl-5-oxa-2,8-diaza-1(5,3)-pyrazolo[1,5-a]pyrimidinyl-4(3,2)-pyridinacyclononaphan-9-one]
RET G810R
  IC50: > 1000 nM
RET wt
  IC50: 323 nM
RET V804M
  IC50: > 1000 nM
BTK C481S
  IC50: > 1000 nM
BTK
  IC50: > 1000 nM

## C[C@H]1CNC(=O)c2cnn3c(N)c(-c4ccccc4F)c(nc23)NCc2cc(F)cnc2O1 [Example 66]
RET G810R
  IC50: 53.7 nM
RET wt
  IC50: 1.3 nM
TRKa
  IC50: 101 nM
BTK C481S
  IC50: 1.45 nM
BTK
  IC50: 1.7 nM

## Nc1c(-c2ccccc2)c2nc3c(cnn13)C(=O)N1CCCC1COc1ncc(F)cc1CN2 (stereo not drawn) [Example 79]
RET G810R
  IC50: > 1000 nM
RET wt
  IC50: 104 nM
RET V804M
  IC50: > 1000 nM
BTK C481S
  IC50: 97 nM
BTK
  IC50: 45 nM

## C[C@H]1CNC(=O)c2cnn3c(N)c(-c4ccc(NC(=O)OCC5CC5)cc4)c(nc23)NCc2cc(F)cnc2O1 [Example 63, cyclopropylmethyl (4-((S, 1^3E, 1^4E)-1^7-amino-4^5-fluoro-6-methyl-9-oxo-5-oxo-2,8-diaza-1(5,3)-pyrazolo[1,5-a]pyrimidin-4(3,2)-pyridinacyclononaphan-1^6-yl)phenyl)carbamate]
RET G810R
  IC50: 22 nM
SRC
  IC50: 2.8 nM
RET wt
  IC50: 1.2 nM
RET V804M
  IC50: 3.5 nM
TRKa
  IC50: 65 nM
BTK
  IC50: 33 nM

## C[C@H]1CN(C)C(=O)c2cnn3c(N)c(-c4ccccc4)c(nc23)NCc2cc(F)cnc2O1 [Example 75, (S, 1^3E, 1^4E)-1^7-amino-4^5-fluoro-6,8-dimethyl-1^6-phenyl-5-oxo-2,8-diaza-1(5,3)-pyrazolo[1,5-a]pyrimidin-4(3,2)-pyridinacyclononaphan-9-one]
RET G810R
  IC50: > 1000 nM
RET wt
  IC50: 20 nM
RET V804M
  IC50: 311 nM
BTK C481S
  IC50: 52 nM
BTK
  IC50: 22 nM

## C[C@H]1CNC(=O)c2c(Br)nn3c(N)c(-c4ccccc4)c(nc23)NCc2cc(F)cnc2O1 [Example 76, (S, 1^3E, 1^4E)-1^2-bromo-1^6-phenyl-1^7-amino-4^5-fluoro-6-methyl-5-oxa-2,8-diaza-1(5,3)-pyrazolo[1,5-a]pyrimidinyl-4(3,2)-pyridinacyclononaphan-9-one]
RET G810R
  IC50: > 1000 nM
RET wt
  IC50: 922 nM
RET V804M
  IC50: > 1000 nM
BTK C481S
  IC50: > 1000 nM
BTK
  IC50: > 1000 nM

## C[C@H]1CNC(=O)c2cnn3cc(-c4ccc(N5CCOC5=O)cc4Cl)c(nc23)NCc2cc(F)cnc2O1 [Compound 40, (S, 1^3E, 1^4E)-1^6-(2-chloro-4-(2-oxaoxazolidin-3-yl)phenyl)-4^5-fluoro-6-methyl-5-oxa-2,8-diaza-1(5,3)-pyrazolo[1,5-a]pyrimidin-4(3,2)-pyridinacyclononaphan-9-one]
SRC
  IC50: 105 nM
RET wt
  IC50: 465 nM
BTK
  IC50: 176 nM

## Nc1c(-c2ccccc2)c2nc3c(cnn13)C(=O)NC1CCCC1Oc1ncc(F)cc1CN2 (stereo not drawn) [Example 78, (6^3E, 6^4E)-6^7-amino-1^5-fluoro-6^6-phenyl-2-oxo-4,7-diaza-6(3,5)-pyrazolo[1,5-a]pyrimidin-1(2,3)-pyridin-3(1, 2)-cyclopentanacyclooctaphan-5-one]
RET G810R
  IC50: 337 nM
RET wt
  IC50: 2.5 nM
RET V804M
  IC50: 24 nM
BTK C481S
  IC50: 1.7 nM
BTK
  IC50: 1.7 nM

## C[C@H]1CNC(=O)c2cnn3cc(-c4ccccn4)c(nc23)NCc2cc(F)cnc2O1 [Compound 33]
SRC
  IC50: 196 nM
RET wt
  IC50: 407 nM
BTK
  IC50: > 10000 nM

## CNc1c(-c2ccccc2)c2nc3c(cnn13)C(=O)NC[C@H](C)Oc1ncc(F)cc1CN2 [Example 64, (S, 1^3E, 1^4E)-4^5-fluoro-6-methyl-1^7-(methylamino)-1^6-phenyl-5-oxa-2,8-diaza-1(5,3)-pyrazolopyrimidin-4(3,2)-pyridinacyclononaphan-9-one]
SRC
  IC50: 61 nM
RET wt
  IC50: 128 nM
BTK
  IC50: > 1000 nM

## C[C@H]1CNC(=O)c2cnn3cc(-c4ccc(Cl)cc4)c(nc23)NCc2cc(F)cnc2O1 [Compound 9, (S, 1^3E, 1^4E)-1^6-(4-chlorophenyl)-4^5-fluoro-6-methyl-5-oxa-2,8-diaza-1(5,3)-pyrazolo[1,5-a]pyrimidina-4(3,2)-pyridinacyclononaphan-9-one]
RET wt
  IC50: 8.2 nM
TRKa
  IC50: > 10000 nM
BTK C481S
  IC50: 13 nM
BTK
  IC50: 25.9 nM

## C[C@H]1CNC(=O)c2cnn3cc(N4CCOCC4)c(nc23)NCc2cc(F)cnc2O1 [Compound 17, (S, 1^3E, 1^4E)-4^5-fluoro-6-methyl-1^6-morpholino-5-oxa-2,8-diaza-1(5,3)-pyrazolo[1,5-a]pyrimidina-4(3,2)-pyridinacyclononaphan-9-one]
RET wt
  IC50: > 10000 nM
TRKa
  IC50: > 10000 nM
BTK C481S
  IC50: > 10000 nM
BTK
  IC50: > 10000 nM

## C[C@H]1CNC(=O)c2cnn3cc(-c4cccc(Cl)c4)c(nc23)NCc2cc(F)cnc2O1 [Compound 3, (S, 1^3E, 1^4E)-1^6-(3-chlorophenyl)-4^5-fluoro-6-methyl-5-oxa-2,8-diaza-1(5,3)-pyrazolo[1,5-a]pyrimidina-4(3,2)-pyridinacyclononaphan-9-one]
RET wt
  IC50: 22 nM
TRKa
  IC50: > 10000 nM
BTK C481S
  IC50: 54.8 nM

— patent publication US20230219978A1, “COMPOUND HAVING MACROCYCLIC STRUCTURE AND USE THEREOF” (SCINNOHUB PHARMACEUTICAL CO., LTD, priority 2020, published 2023)
